Experimental data as given in ChEMBL document CHEMBL1123223, “New effective gonadotropin releasing hormone antagonists with minimal potency for histamine release in vitro” (J Med Chem, 1986).
In brackets after ≈: the same amount, converted by molar mass.

Legend:
Rattus norvegicus [1] = organism: Rattus norvegicus; assay: Dissociation constant was determined in rat pituitary cells.; type: cell-based; settings: pituitary gland cell
[2] = biological target: T1, Gonadotropin-releasing hormone receptor (Rattus norvegicus) (UniProt P30969); assay: Inhibition of GnRH-mediated LH secretion by cultured pituitary cells; type: functional, cell-based; settings: Pituitary gland cell
T1 sequence (whole entry): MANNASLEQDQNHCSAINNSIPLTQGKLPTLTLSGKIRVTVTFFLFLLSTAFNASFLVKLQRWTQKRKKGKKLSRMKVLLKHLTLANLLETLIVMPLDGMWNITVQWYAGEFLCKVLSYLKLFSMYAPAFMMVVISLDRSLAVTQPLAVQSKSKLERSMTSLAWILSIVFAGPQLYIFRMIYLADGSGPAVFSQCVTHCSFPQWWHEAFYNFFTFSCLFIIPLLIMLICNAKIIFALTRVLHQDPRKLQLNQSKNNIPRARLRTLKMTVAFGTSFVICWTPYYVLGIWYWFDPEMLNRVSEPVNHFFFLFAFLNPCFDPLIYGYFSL

Rattus norvegicus [3] = organism: Rattus norvegicus; assay: GnRH antagonistic dose of compound for 10 rats ovulation out of total 10 using anti-ovulatory assay; type: functional
Rattus norvegicus [4] = organism: Rattus norvegicus; assay: Compound was tested in vitro for its ability to inhibit histamine release from rat mast cells.; type: functional; settings: read-out: ED50 (the source's name)
Rattus norvegicus [5] = organism: Rattus norvegicus; assay: GnRH antagonistic dose of compound for 7 rats ovulation out of total 20 using anti-ovulatory assay; type: functional
Rattus norvegicus [6] = organism: Rattus norvegicus; assay: GnRH antagonistic dose of compound for 0 rats ovulation out of total 10 using anti-ovulatory assay in experiment 2; type: functional
Rattus norvegicus [7] = organism: Rattus norvegicus; assay: GnRH antagonistic dose of compound for 5 rats ovulation out of total 10 using anti-ovulatory assay in experiment 1; type: functional
Rattus norvegicus [8] = organism: Rattus norvegicus; assay: GnRH antagonistic dose of compound for 8 rats ovulation out of total 10 using anti-ovulatory assay; type: functional
Rattus norvegicus [9] = organism: Rattus norvegicus; assay: GnRH antagonistic dose of compound for 9 rats ovulation out of total 10 using anti-ovulatory assay; type: functional

SMILES: CC(=O)N[C@H](Cc1ccc2ccccc2c1)C(=O)N[C@H](Cc1ccc(Cl)cc1)C(=O)N[C@H](Cc1cccnc1)C(=O)N[C@@H](CO)C(=O)N[C@@H](CCCN=C(N)N)C(=O)N[C@H](CCC(=O)O)C(=O)N[C@@H](CC(C)C)C(=O)N[C@@H](CCCN=C(N)N)C(=O)N1CCC[C@@H]1C(=O)N[C@H](C)C(=O)O
- Kd (Rattus norvegicus [1]): 0.16 nM
- Relative potency [2]: 0.09

SMILES: COc1ccc(C(=O)CC[C@@H](NC(=O)[C@H](Cc2ccc(O)cc2)NC(=O)[C@H](CO)NC(=O)[C@@H](Cc2cccnc2)NC(=O)[C@@H](Cc2ccc(Cl)cc2)NC(=O)[C@H]2CCCN2C(C)=O)C(=O)N(C)[C@@H](CC(C)C)C(=O)N[C@@H](CCCN=C(N)N)C(=O)N2CCC[C@H]2C(=O)N[C@H](C)C(=O)O)cc1
- ED100 (Rattus norvegicus [3]): 5 µg/kg
- EC50 (Rattus norvegicus [4]): 30.3 µg/mL (≈ 21.5 µM)

SMILES: CC(=O)N[C@H](Cc1ccc2ccccc2c1)C(=O)N[C@H](Cc1ccc(Cl)cc1)C(=O)N[C@H](Cc1cccnc1)C(=O)N[C@@H](CO)C(=O)N[C@@H](CCCN=C(N)N)C(=O)N[C@H](Cc1c[nH]c2cc([N+](=O)[O-])ccc12)C(=O)N[C@@H](CC(C)C)C(=O)N[C@@H](CCCN=C(N)N)C(=O)N1CCC[C@H]1C(=O)N[C@H](C)C(=O)O
- Kd (Rattus norvegicus [1]): 0.63 nM
- Relative potency [2]: 1.16
- ED100 (Rattus norvegicus [5]): 0.5 µg/kg
- EC50 (Rattus norvegicus [4]): 2.7 µg/mL (≈ 1.8 µM)

SMILES: CC(=O)N[C@H](Cc1ccc2ccccc2c1)C(=O)N[C@H](Cc1ccc(Cl)cc1)C(=O)N[C@H](Cc1cccnc1)C(=O)N[C@@H](CO)C(=O)N[C@@H](CCCN=C(N)N)C(=O)N[C@H](Cc1cccnc1)C(=O)N[C@@H](CC(C)C)C(=O)N[C@@H](CCCN=C(N)N)C(=O)N1CCC[C@H]1C(=O)N[C@H](C)C(=O)O
- Kd (Rattus norvegicus [1]): 0.24 nM
- Relative potency [2]: 0.91
- ED100 (Rattus norvegicus [6]): 1 µg/kg
- ED100 (Rattus norvegicus [7]): 0.5 µg/kg
- EC50 (Rattus norvegicus [4]): 2.9 µg/mL (≈ 2.05 µM)

SMILES: COc1ccc(C(=O)CC[C@@H](NC(=O)[C@H](CCCN=C(N)N)NC(=O)[C@H](CO)NC(=O)[C@@H](Cc2cccnc2)NC(=O)[C@@H](Cc2ccc(Cl)cc2)NC(=O)[C@@H](Cc2ccc3ccccc3c2)NC(C)=O)C(=O)N(C)[C@@H](CC(C)C)C(=O)N[C@@H](CCCN=C(N)N)C(=O)N2CCC[C@H]2C(=O)N[C@H](C)C(N)=O)cc1
- ED100 (Rattus norvegicus [8]): 1 µg/kg
- EC50 (Rattus norvegicus [4]): 4.6 µg/mL (≈ 3.07 µM)

SMILES: CC(=O)N[C@H](Cc1ccc2ccccc2c1)C(=O)N[C@H](Cc1ccc(F)cc1)C(=O)N[C@H](Cc1c[nH]c2ccccc12)C(=O)N[C@@H](CO)C(=O)N[C@@H](Cc1ccc(O)cc1)C(=O)N[C@H](CCCN=C(N)N)C(=O)N[C@@H](CC(C)C)C(=O)N[C@@H](CCCN=C(N)N)C(=O)N1CCC[C@H]1C(=O)NCC(=O)O
- EC50 (Rattus norvegicus [4]): 0.17 µg/mL (≈ 0.118 µM)

SMILES: CC(=O)N[C@H](Cc1ccc2ccccc2c1)C(=O)N[C@H](Cc1ccc(Cl)cc1)C(=O)N[C@H](Cc1cccnc1)C(=O)N[C@@H](CO)C(=O)N[C@@H](CCCN=C(N)N)C(=O)N[C@H](Cc1cn(Cc2ccccc2)cn1)C(=O)N[C@@H](CC(C)C)C(=O)N[C@@H](CCCN=C(N)N)C(=O)N1CCC[C@H]1C(=O)N[C@H](C)C(N)=O
- ED100 (Rattus norvegicus [8]): 0.5 µg/kg
- EC50 (Rattus norvegicus [4]): 4.4 µg/mL (≈ 2.94 µM)

SMILES: CC(=O)N[C@H](Cc1ccc2ccccc2c1)C(=O)N[C@H](Cc1ccc(Cl)cc1)C(=O)N[C@H](Cc1cccnc1)C(=O)N[C@@H](CO)C(=O)N[C@@H](CCCN=C(N)N)C(=O)N[C@H](CCC(=O)O)C(=O)N[C@@H](CC(C)C)C(=O)N[C@@H](CCCN=C(N)N)C(=O)N1CCC[C@H]1C(=O)N[C@H](C)C(=O)O
- ED100 (Rattus norvegicus [9]): 10 µg/kg
- EC50 (Rattus norvegicus [4]): 17 µg/mL (≈ 12.2 µM)
